Data published in US6632808B1 (priority 1998, dated 2003).
Where two headings read alike, the source gives them in different places. Marks after values point to notes of the source that are not given here.

Experiments:
[1] = tested on: PrP-res formation in scrapie infected neuroblastoma (ScNB) cells; type: cell-based, mouse; settings: for % control PrP-res (at 10 μg TSP/ml): 10 μg/ml (~10 μM) meso-porphyrin, relative to untreated ScNB cells; for IC50: ScNB cells
[2] = mouse, in vivo, ip
[3] = target: conversion of hamster PrP-sen to PrP-res (Mesocricetus auratus, UniProt P04273); type: biochemical; settings: 10 μg/ml tetrapyrrole; for conversion, % of control: mean SD
[4] = have been reported; cited from earlier work
[5] = footnote b values are half-way between 10-fold dilutions (~±50%), read-out: IC50 (μM), PrP-res formation, meso-porphyrins

conversion of hamster PrP-sen to PrP-res, sequence (P04273 23-230 limits assumed): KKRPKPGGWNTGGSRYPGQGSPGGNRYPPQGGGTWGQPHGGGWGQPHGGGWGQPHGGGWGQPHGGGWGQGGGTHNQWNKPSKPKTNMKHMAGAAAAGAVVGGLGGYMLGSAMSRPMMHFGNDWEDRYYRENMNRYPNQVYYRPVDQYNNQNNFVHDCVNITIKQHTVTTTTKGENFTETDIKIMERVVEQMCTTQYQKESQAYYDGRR

Row | Molecule | % control PrP-res (at 10 μg TSP/ml) [1] | IC50 [1, 5] [µM] | other results
1 | C[n+]1cccc(-c2c3nc(c(-c4ccc[n+](C)c4)c4ccc([nH]4)c(-c4ccc[n+](C)c4)c4nc(c(-c5ccc[n+](C)c5)c5ccc2[nH]5)C=C4)C=C3)c1 [T(N-Me-3-Py)P] | 50 ± 0^a % | – | –
2 | Phthalocyanine tetrasulfonate [PcTS] | – | – | time detectable in the spleen after treatment had stopped [2]: at least 8 months; % control PrP-res (at 10 μg Pc/ml) ([1]; 10 μg Pc/ml (about 10 μM) in medium, 3-4 days, band intensity relative to untreated ScNB cells, mean ± SD): <3%; IC50 ([1]; concentration giving 50% inhibition of PrP-res formation relative to control, footnote a values are half-way between 10-fold dilutions (±50%), read-out: IC50 (μM), PrP-res formation, phthalocyanines): 0.5 µM; conversion, % of control [3]: 0±0%
3 | O=C(O)c1ccc(-c2c3nc(c(-c4ccc(C(=O)O)cc4)c4ccc([nH]4)c(-c4ccc(C(=O)O)cc4)c4nc(c(-c5ccc(C(=O)O)cc5)c5ccc2[nH]5)C=C4)C=C3)cc1 [T(Ph-4-COOH)P] | 50 ± 0% | – | –
4 | C[n+]1ccccc1-c1c2nc(c(-c3cccc[n+]3C)c3ccc([nH]3)c(-c3cccc[n+]3C)c3nc(c(-c4cccc[n+]4C)c4ccc1[nH]4)C=C3)C=C2 [T(N-Me-2-Py)P] | 4 ± 3% | ~5 | inhibition of cell-free conversion, in words [3]: not significantly inhibitory
5 | C[n+]1ccc(-c2c3nc(c(-c4cc[n+](C)cc4)c4ccc([nH]4)c(-c4cc[n+](C)cc4)c4nc(c(-c5cc[n+](C)cc5)c5ccc2[nH]5)C=C4)C=C3)cc1 [T(N-Me-4-Py)P] | 50 ± 0% | – | conversion, % of control [3]: 66±18%
6 | C[N+](C)(C)c1ccc(-c2c3nc(c(-c4ccc([N+](C)(C)C)cc4)c4ccc([nH]4)c(-c4ccc([N+](C)(C)C)cc4)c4nc(c(-c5ccc([N+](C)(C)C)cc5)c5ccc2[nH]5)C=C4)C=C3)cc1 [T(Ph-4-NMe^+3)P] | – | 5 ± 0.8 | inhibition of cell-free conversion, in words [3]: not significantly inhibitory
7 | O=S(=O)(O)c1ccc(-c2c3nc(c(-c4ccc(S(=O)(=O)O)cc4)c4ccc([nH]4)c(-c4ccc(S(=O)(=O)O)cc4)c4nc(c(-c5ccc(S(=O)(=O)O)cc5)c5ccc2[nH]5)C=C4)C=C3)cc1 [T(Ph-4-SO^−3)P] | 44 ± 31% | ~5 | tolerability [4]: well tolerated
8 | C1=Cc2nc1c(-c1ccncc1)c1ccc([nH]1)c(-c1ccncc1)c1nc(c(-c3ccncc3)c3ccc([nH]3)c2-c2ccncc2)C=C1 [T(4-Py)P] | 12 ± 0^a % | – | –
